Reference: the supplement of paper PMC10307832

Experiments:
Experiment in all cases: relative viability (nuclei count vs DMSO), 5 days (fraction); higher = more cells survive
[1] = compound: CC[C@H](CO)Nc1nc(NCc2ccccc2)c2ncn(C(C)C)c2n1 [Seliciclib] + Nc1ncn([C@H]2C[C@H](O)[C@@H](CO)O2)c(=O)n1 [Decitabine] (partner 2 µM)
Outline: (§1)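 The day after seeding in 1536-well plates, lung cancer cell lines were treated by pin tool with a single drug, or with a fixed anchor-drug dose together with five library-drug doses (not always all listed) in √10 steps. After 5 days, a combined fix-and-stain solution (final 0.05% Triton X-100, 1% formaldehyde, 1 ug/ml Hoechst) was added. Nuclei counted on 4× images gave relative viability as treated counts over vehicle counts, reported as the median of duplicate plates.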

[2] = compound: CC[C@H](CO)Nc1nc(NCc2ccccc2)c2ncn(C(C)C)c2n1 [Seliciclib] + CS(=O)(=O)CCNCc1ccc(-c2ccc3ncnc(Nc4ccc(OCc5cccc(F)c5)c(Cl)c4)c3c2)o1 [Lapatinib] (partner 2 µM)
Outline: as §1

[3] = compound: CC[C@H](CO)Nc1nc(NCc2ccccc2)c2ncn(C(C)C)c2n1 [Seliciclib] + O=C(c1cc(Cc2n[nH]c(=O)c3ccccc23)ccc1F)N1CCN(C(=O)C2CC2)CC1 [Olaparib] (partner 8 µM)
Outline: as §1

[4] = compound: CC[C@H](CO)Nc1nc(NCc2ccccc2)c2ncn(C(C)C)c2n1 [Seliciclib] + NC(=O)Nc1cc(-c2cccc(F)c2)sc1C(=O)N[C@H]1CCCNC1 [AZD7762] (partner 0.2 µM)
Outline: as §1

Cell Line	relative viability ([1]; first compound 0.08 µM)	relative viability ([1]; first compound 0.253 µM)	relative viability ([1]; first compound 0.8 µM)	relative viability ([1]; first compound 2.53 µM)	relative viability ([1]; first compound 8 µM)	relative viability ([2]; first compound 0.08 µM)	relative viability ([2]; first compound 0.253 µM)	relative viability ([2]; first compound 0.8 µM)	relative viability ([2]; first compound 2.53 µM)	relative viability ([2]; first compound 8 µM)	relative viability ([3]; first compound 0.08 µM)	relative viability ([3]; first compound 0.253 µM)	relative viability ([3]; first compound 0.8 µM)	relative viability ([3]; first compound 2.53 µM)	relative viability ([3]; first compound 8 µM)	relative viability ([4]; first compound 0.08 µM)	relative viability ([4]; first compound 0.253 µM)	relative viability ([4]; first compound 0.8 µM)	relative viability ([4]; first compound 2.53 µM)	relative viability ([4]; first compound 8 µM)
201T	0.827	0.893	0.857	0.806	0.728	1.08	1.07	1	0.952	0.843	0.805	0.834	0.812	0.882	0.805	0.578	0.534	0.69	0.622	0.734
A-427	0.606	0.521	0.612	0.52	0.589	1.03	1.08	1.13	1.02	1.01	0.79	0.714	0.712	0.617	0.639	0.763	0.912	0.853	1.13	0.998
ABC-1	1.11	1.18	1.17	–	0.6	1.18	1.06	1.19	1.17	0.894	0.864	0.741	0.615	–	0.782	0.944	0.764	0.782	0.719	0.637
BEN	0.738	0.739	0.761	0.698	0.622	0.826	0.525	0.772	0.677	0.629	0.898	1.01	1.16	1.01	0.815	0.808	0.584	0.694	0.672	0.61
CAL-12T	–	–	–	–	–	0.619	0.793	0.551	0.67	0.276	0.759	0.712	0.742	0.585	0.472	0.509	0.772	0.71	0.707	0.729
COR-L23	0.395	0.34	0.478	0.419	0.403	0.921	1.14	0.929	1.12	0.87	0.302	0.451	0.345	0.364	0.297	–	–	–	–	–
COR-L 105	0.568	0.664	0.648	0.605	0.557	0.367	0.347	0.416	0.311	0.279	0.656	0.602	0.7	0.713	0.733	–	–	–	–	–
Calu-6	–	–	–	–	–	0.993	1.13	1.08	1.08	0.934	0.602	0.658	0.565	0.624	0.532	–	–	–	–	–
ChaGo-K-1	0.519	0.472	0.509	0.516	0.475	–	–	–	–	–	0.424	0.464	0.379	0.425	0.359	0.875	0.511	0.895	0.918	0.892
EKVX	0.299	0.224	0.366	0.184	0.377	0.197	0.473	0.18	0.166	0.216	0.772	1.08	0.749	0.682	0.775	0.767	0.767	0.791	0.642	0.711
EMC-BAC-2	0.918	1.01	1	0.753	0.856	0.891	0.847	0.953	0.666	0.781	0.493	0.494	0.59	0.447	0.446	1.2	1.21	1.25	0.794	0.946
EPLC-272H	0.373	0.432	0.336	0.395	0.342	0.814	0.861	0.805	0.913	0.847	0.919	0.729	0.667	0.791	0.441	0.203	0.17	0.208	0.329	0.347
H3255	0.594	0.61	0.684	0.571	0.479	0.265	0.273	0.256	0.174	0.242	0.545	0.575	0.552	0.518	0.518	0.811	0.848	0.951	0.839	0.823
HARA	0.456	0.655	0.56	0.474	0.6	0.798	0.614	0.781	0.374	0.701	1.05	0.66	0.784	0.909	0.924	0.348	0.293	0.381	0.596	0.908
HCC-15	0.685	0.814	0.629	0.457	0.527	0.865	0.963	0.758	0.792	0.652	0.707	0.792	0.72	0.796	0.669	1.09	1.37	1.22	1.19	1.02
